Assay results as given in ChEMBL document CHEMBL1201862, “PubChem BioAssay data set” (2004).
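Cells were grown in 96-well plates and exposed to each compound for 48 hours at five concentrations; endpoints were interpolated linearly between bracketing concentrations, or set to the highest concentration if not reached. Abbreviation: GI50, concentration required for 50% inhibition of growth.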 Active and inactive are the calls of the source. Cut-off read from the data, not from the text of the source: active = GI50 up to about 1.1 µM and inactive = higher.

What was measured:
Assay in all cases: NCI-60 cell line screen, 48 h
OVCAR-3 = system: OVCAR-3
HOP-62 = system: HOP-62
DU-145 = system: DU-145
Malme-3M = system: Malme-3M
ACHN = system: ACHN
SF-268 = system: SF-268
NCI-H23 = system: NCI-H23
CAKI-1 = system: CAKI-1
SN12C = system: SN12C
SK-OV-3 = system: SK-OV-3
PC-3 = system: PC-3
Hs-578T = system: Hs-578T
MOLT-4 = system: MOLT-4
KM12 = system: KM12
T47D = system: T47D
RPMI-8226 = system: RPMI-8226
BT-549 = system: BT-549
HOP-92 = system: HOP-92
MDA-MB-231 = system: MDA-MB-231
SR = system: SR
HCT-15 = system: HCT-15
UACC-62 = system: UACC-62
SW-620 = system: SW-620
HT-29 = system: HT-29
IGROV-1 = system: IGROV-1
COLO 205 = system: COLO 205
K562 = system: K562
M14 = system: M14
MDA-N = system: MDA-N
NCI/ADR-RES = system: NCI/ADR-RES
RXF 393 = system: RXF 393
EKVX = system: EKVX
A498 = system: A498
UACC-257 = system: UACC-257
CCRF-CEM = system: CCRF-CEM
NCI-H226 = system: NCI-H226
OVCAR-5 = system: OVCAR-5
LOX IMVI = system: LOX IMVI
A549 = system: A549
SK-MEL-28 = system: SK-MEL-28
OVCAR-8 = system: OVCAR-8
HCT-116 = system: HCT-116
UO-31 = system: UO-31
786-0 = system: 786-0
HL-60 = system: HL-60
MDA-MB-435 = system: MDA-MB-435
SNB-75 = system: SNB-75
TK-10 = system: TK-10
SNB-19 = system: SNB-19
U-251 = system: U-251
SF-539 = system: SF-539
MCF7 = system: MCF7
SK-MEL-5 = system: SK-MEL-5
SF-295 = system: SF-295
OVCAR-4 = system: OVCAR-4
NCI-H460 = system: NCI-H460
NCI-H522 = system: NCI-H522
SK-MEL-2 = system: SK-MEL-2
HCC 2998 = system: HCC 2998

In the case of `CSc1nc(C)c2c(n1)SCC2`, the GI50 (OVCAR-3) was > 10 µM (inactive), the GI50 (HOP-62) was > 10 µM (inactive) and the GI50 (DU-145) was > 10 µM (inactive). For the same molecule, the GI50 (Malme-3M) was > 10 µM (inactive), the GI50 (ACHN) was > 10 µM (inactive) and the GI50 (SF-268) was > 10 µM (inactive). For the same molecule, the GI50 (NCI-H23) was > 10 µM (inactive), the GI50 (CAKI-1) was > 10 µM (inactive) and the GI50 (SN12C) was > 10 µM (inactive). The GI50 (SK-OV-3) was > 10 µM (inactive), the GI50 (PC-3) was > 10 µM (inactive) and the GI50 (Hs-578T) was 2.52 µM (inactive). For the same molecule, the GI50 (MOLT-4) was > 10 µM (inactive), the GI50 (KM12) was > 10 µM (inactive) and the GI50 (T47D) was > 10 µM (inactive). For the same molecule, the GI50 (RPMI-8226) was > 10 µM (inactive), the GI50 (BT-549) was > 10 µM (inactive) and the GI50 (HOP-92) was > 10 µM (inactive). The GI50 (MDA-MB-231) was > 10 µM (inactive), the GI50 (SR) was > 10 µM (inactive) and the GI50 (HCT-15) was > 10 µM. The GI50 (UACC-62) was > 10 µM (inactive), the GI50 (SW-620) was > 10 µM (inactive) and the GI50 (HT-29) was > 10 µM (inactive). The GI50 (IGROV-1) was > 10 µM (inactive), the GI50 (COLO 205) was > 10 µM (inactive) and the GI50 (K562) was > 10 µM (inactive). For the same molecule, the GI50 (M14) was > 10 µM (inactive), the GI50 (MDA-N) was > 10 µM (inactive) and the GI50 (NCI/ADR-RES) was > 10 µM (inactive). For the same molecule, the GI50 (RXF 393) was > 10 µM (inactive), the GI50 (EKVX) was > 10 µM (inactive) and the GI50 (A498) was > 10 µM (inactive). The GI50 (UACC-257) was > 10 µM (inactive), the GI50 (CCRF-CEM) was > 10 µM (inactive) and the GI50 (NCI-H226) was > 10 µM (inactive). For the same molecule, the GI50 (OVCAR-5) was > 10 µM (inactive), the GI50 (LOX IMVI) was > 10 µM (inactive) and the GI50 (A549) was > 10 µM (inactive). For the same molecule, the GI50 (SK-MEL-28) was > 10 µM (inactive), the GI50 (OVCAR-8) was > 10 µM (inactive) and the GI50 (HCT-116) was > 10 µM (inactive). For the same molecule, the GI50 (UO-31) was > 10 µM (inactive), the GI50 (786-0) was > 10 µM (inactive) and the GI50 (HL-60) was > 10 µM (inactive). The GI50 (MDA-MB-435) was > 10 µM (inactive), the GI50 (SNB-75) was > 10 µM (inactive) and the GI50 (TK-10) was > 10 µM (inactive). For the same molecule, the GI50 (SNB-19) was > 10 µM (inactive), the GI50 (U-251) was > 10 µM (inactive) and the GI50 (SF-539) was > 10 µM (inactive). For the same molecule, the GI50 (MCF7) was > 10 µM (inactive), the GI50 (SK-MEL-5) was > 10 µM (inactive) and the GI50 (SF-295) was > 10 µM (inactive). The GI50 (OVCAR-4) was > 10 µM (inactive) and the GI50 (NCI-H460) was > 10 µM (inactive).
For `Cc1ccc(OCC2OC(n3cnc4nc(N)nc(Cl)c43)CC2Oc2ccc(C)cc2)cc1` (stereo unspecified), the GI50 (OVCAR-3) was 18.6 µM (inactive), the GI50 (HOP-62) was 22.3 µM (inactive) and the GI50 (DU-145) was 18 µM (inactive). The GI50 (Malme-3M) was 24.3 µM (inactive), the GI50 (ACHN) was 15.2 µM (inactive) and the GI50 (SF-268) was 15.4 µM (inactive). For the same molecule, the GI50 (NCI-H23) was 15.6 µM (inactive), the GI50 (CAKI-1) was 4.08 µM (inactive) and the GI50 (SN12C) was 15.8 µM (inactive). The GI50 (SK-OV-3) was 33.9 µM (inactive), the GI50 (PC-3) was 21.9 µM (inactive) and the GI50 (Hs-578T) was 15.4 µM (inactive). The GI50 (MOLT-4) was 4.51 µM (inactive), the GI50 (KM12) was 21 µM (inactive) and the GI50 (T47D) was 14.9 µM (inactive). The GI50 (RPMI-8226) was 7.98 µM (inactive), the GI50 (BT-549) was 22.5 µM (inactive) and the GI50 (HOP-92) was 17.3 µM (inactive). For the same molecule, the GI50 (MDA-MB-231) was 34.6 µM (inactive), the GI50 (SR) was 6.71 µM (inactive) and the GI50 (HCT-15) was 14.9 µM. For the same molecule, the GI50 (UACC-62) was 27.5 µM (inactive), the GI50 (SW-620) was 32.5 µM (inactive) and the GI50 (HT-29) was 23.7 µM (inactive). For the same molecule, the GI50 (NCI-H522) was 15.7 µM (inactive), the GI50 (IGROV-1) was 18.5 µM (inactive) and the GI50 (COLO 205) was 16.8 µM (inactive). The GI50 (SK-MEL-2) was 17.7 µM (inactive), the GI50 (M14) was 15.8 µM (inactive) and the GI50 (MDA-N) was 11.9 µM (inactive). For the same molecule, the GI50 (NCI/ADR-RES) was 15.9 µM (inactive), the GI50 (EKVX) was 24.5 µM (inactive) and the GI50 (A498) was 28.2 µM (inactive). For the same molecule, the GI50 (UACC-257) was 34.1 µM (inactive), the GI50 (CCRF-CEM) was 45.1 µM (inactive) and the GI50 (HCC 2998) was 15.8 µM (inactive). The GI50 (NCI-H226) was 18.1 µM (inactive), the GI50 (OVCAR-5) was 18.3 µM (inactive) and the GI50 (LOX IMVI) was 15.7 µM (inactive). The GI50 (A549) was 21.3 µM (inactive), the GI50 (SK-MEL-28) was 36 µM (inactive) and the GI50 (OVCAR-8) was 15.7 µM (inactive). The GI50 (HCT-116) was 22 µM (inactive), the GI50 (786-0) was 22.1 µM (inactive) and the GI50 (MDA-MB-435) was 27.9 µM (inactive). The GI50 (SNB-75) was 11 µM (inactive), the GI50 (TK-10) was 31.1 µM (inactive) and the GI50 (SNB-19) was 11.8 µM (inactive). For the same molecule, the GI50 (U-251) was 29.6 µM (inactive), the GI50 (SF-539) was 23.3 µM (inactive) and the GI50 (MCF7) was 15.1 µM (inactive). For the same molecule, the GI50 (SK-MEL-5) was 19.7 µM (inactive), the GI50 (SF-295) was 27.6 µM (inactive) and the GI50 (OVCAR-4) was 23.2 µM (inactive). For the same molecule, the GI50 (NCI-H460) was 21.4 µM (inactive).
